In this experiment the test system is ochratoxin A aptamer, 0 complementary bp (no tail) (DNA, aptamer) GATCGGGTGTGGGTGGCGTAAAGGGAGCATCGGACA
The experiment is described as follows: electrochemical aptamer-based sensor, square wave voltammetry (KDM). As to conditions: 1X PBS pH 7.4, room temperature.

We go through two compounds from publication PMC6016998 (2018).

As usually defined, the KD is the concentration at which binding is half-saturated. High values mean a looser complex, low ones a tighter complex.

In the case of `CCCC[C@@H](C)[C@@H](OC(=O)C[C@@H](CC(=O)O)C(=O)O)[C@H](C[C@@H](C)C[C@H](O)CCCC[C@@H](O)C[C@H](O)[C@H](C)N)OC(=O)C[C@@H](CC(=O)O)C(=O)O`, the binding entry (tested at 10 µM only, no KDM signal) was “no”. Take `C[C@@H]1Cc2c(Cl)cc(C(=O)N[C@@H](Cc3ccccc3)C(=O)O)c(O)c2C(=O)O1`: the KD (1X PBS (Na+, K+; concentrations not given), undiluted iced coffee rows (ions not given), flowing, KDM of 240 Hz and 20 Hz) stood at 6.5 ± 0.6 µM.
